PMC3026871 (Cancer chemotherapy and pharmacology, 2010)
Marks after values point to notes of the source that are not given here.

Assays:
[1] = test system: patients with advanced solid tumors; test: Phase 1 safety: drug-related adverse events; assay type: in vivo
[2] = test system: patients with advanced solid tumors; test: Clinical response; assay type: in vivo, human; details: RECIST
[3] = ref Data on file, Millennium; cited from earlier work
[4] = test system: alpha-1 subunit of the GABA-A receptor; details: ref Data on file, Millennium; cited from earlier work
[5] = test system: human tumor xenografts; details: cited from earlier work
[6] = ref Data on file, Millennium, cited from earlier work
[7] = test system: dogs; details: the most sensitive species; cited from earlier work
[8] = Plasma pharmacokinetics in patients; details: for Cmin, Mean (SD): 6 hours after the second dose
[9] = QID-7D 25 mg, Day 7, Dose 2, steady state, n=6
[10] = QID-7D 35 mg, Day 7, Dose 2, steady state, n=3
[11] = QID-7D 45 mg, Day 7, Dose 2, steady state, n=3
[12] = QID-7D 55 mg, Day 7, Dose 2, steady state, n=4

For `O=C(O)c1ccc(Nc2ncc3c(n2)-c2ccc(Cl)cc2C(c2c(F)cccc2F)=NC3)cc1` [MLN8054], the “Any drug-related adverse event, Any Grade” value ([1]; human, in vivo) was 55 (90), the “Any drug-related adverse event, Grade 3” value ([1]; human, in vivo) was 13 (21) and the “Drug-related Abnormal coordination, Any Grade” value ([1]; human, in vivo) was 5 (8). The “Drug-related Abnormal coordination, Grade 3” value ([1]; human, in vivo) was 1 (2), the “Drug-related Anorexia, Any Grade” value ([1]; human, in vivo) was 8 (13) and the “Drug-related Anorexia, Grade 3” value ([1]; human, in vivo) was 0 (0). For the same molecule, the “Drug-related Asthenia, Any Grade” value ([1]; human, in vivo) was 6 (10), the “Drug-related Asthenia, Grade 3” value ([1]; human, in vivo) was 1 (2) and the “Drug-related Confusion, Any Grade” value ([1]; human, in vivo) was 11 (18). For the same molecule, the “Drug-related Confusion, Grade 3” value ([1]; human, in vivo) was 4 (7), the “Drug-related Dizziness, Any Grade” value ([1]; human, in vivo) was 7 (11) and the “Drug-related Dizziness, Grade 3” value ([1]; human, in vivo) was 1 (2). For the same molecule, the “Drug-related Fatigue, Any Grade” value ([1]; human, in vivo) was 15 (25), the “Drug-related Fatigue, Grade 3” value ([1]; human, in vivo) was 1 (2) and the “Drug-related Hallucination, Any Grade” value ([1]; human, in vivo) was 1 (2). For the same molecule, the “Drug-related Hallucination, Grade 3” value ([1]; human, in vivo) was 1 (2), the “Drug-related Hyperbilirubinemia, Any Grade” value ([1]; human, in vivo) was 3 (5) and the “Drug-related Hyperbilirubinemia, Grade 3” value ([1]; human, in vivo) was 1 (2). The “Drug-related Hyperglycemia, Any Grade” value ([1]; human, in vivo) was 5 (8), the “Drug-related Hyperglycemia, Grade 3” value ([1]; human, in vivo) was 1 (2) and the “Drug-related Increased blood alkaline phosphatase, Any Grade” value ([1]; human, in vivo) was 4 (7). For the same molecule, the “Drug-related Increased blood alkaline phosphatase, Grade 3” value ([1]; human, in vivo) was 1 (2), the “Drug-related Muscular weakness, Any Grade” value ([1]; human, in vivo) was 5 (8) and the “Drug-related Muscular weakness, Grade 3” value ([1]; human, in vivo) was 1 (2). The “Drug-related Nausea, Any Grade” value ([1]; human, in vivo) was 10 (16), the “Drug-related Nausea, Grade 3” value ([1]; human, in vivo) was 0 (0) and the “Drug-related Peripheral motor neuropathy, Any Grade” value ([1]; human, in vivo) was 1 (2). For the same molecule, the “Drug-related Peripheral motor neuropathy, Grade 3” value ([1]; human, in vivo) was 1 (2), the “Drug-related Somnolence, Any Grade” value ([1]; human, in vivo) was 47 (77) and the “Drug-related Somnolence, Grade 3” value ([1]; human, in vivo) was 11(18). For the same molecule, the “Drug-related Vomiting, Any Grade” value ([1]; human, in vivo) was 6 (10), the “Drug-related Vomiting, Grade 3” value ([1]; human, in vivo) was 0 (0) and the “drug-related grade 4 or 5 AE” value ([1]; human, in vivo) was “no patient had a drug-related grade 4 or 5 AE”. The “grade ≥ 3 mucositis or myelosuppression” value ([1]; human, in vivo) was “No dose studied was associated with grade ≥ 3 mucositis or myelosuppression”, the “patients who died within 21 days of the last dose” value ([1]; nine patients, none of the deaths considered drug-related) was 15% and the “patients with stable disease for greater than 6 cycles” value ([2]; 3 patients) was 5%. For the same molecule, the “complete or partial responses” value ([2]; 5–80 mg per day for 7, 14 or 21 days) was “No complete or partial responses were seen”, the “patients with stable disease for at least 4 cycles” value ([2]; nine patients, all cohorts) was 15% and the “dose-limiting toxicities (DLTs) in preclinical toxicology studies” value [3] was “myelosuppression and gastrointestinal toxicity”. For the same molecule, the “binding to the alpha-1 subunit of the GABA-A receptor” value [4] was “high-affinity binding”, the “antitumor activity in xenograft models” value [5] was “antitumor activity in human tumor xenografts including colon, prostate, and lung cancer models” and the “plasma concentration whose maintenance is required for efficacy” value ([5]; maintained for 8–12 hours per day, human tumor xenografts grown in mice) was ~ 2000 nM. The “major phase 1 biotransformation pathway” value ([6]; human liver S9 fractions) was “Hydroxylation of the azepine moiety”, the “predominant mechanism of biotransformation” value ([6]; human liver S9 fractions) was “Glucuronidation of the carboxylate moiety of MLN8054 to an acyl glucuronide” and the enzymes mediating biotransformation [6] was “Glucuronidation was mediated by UGT1 and UGT2 and hydroxylation by CYP1A2, 2C9, 2C19, 2D6, and 3A4”. The “highest non-severely toxic dose” value [7] was 20 mg/m^2/day, the “dose proportionality of AUC0-24 hr and Cmax” value ([8]; QD dosing) was “roughly dose-proportional” and the “Peak-to-Trough Ratio (Cmax/Cmin)” value ([8]; QD dosing, all dose levels) was “approximately 5”. For the same molecule, the “Geometric Mean Peak-to-Trough Ratio (Cmax/Cmin)” value ([8]; QD-7D 5 mg, Day 7, steady state, n=4) was 4.99, the “Geometric Mean Peak-to-Trough Ratio (Cmax/Cmin)” value ([8]; QD-7D 10 mg, Day 7, steady state, n=4) was 5.10 and the “Geometric Mean Peak-to-Trough Ratio (Cmax/Cmin)” value ([8]; QD-7D 20 mg, Day 7, steady state, n=3) was 5.09. For the same molecule, the “Geometric Mean Peak-to-Trough Ratio (Cmax/Cmin)” value ([8]; QD-7D 30 mg, Day 7, steady state, n=6) was 4.72, the “Peak-to-Trough Ratio (Cmax/Cmin)” value ([8]; QD-7D 40 mg, Day 7, steady state, individual data, n=1) was 6.59 ^† and the “Geometric Mean Peak-to-Trough Ratio (Cmax/Cmin)” value [8, 9] was 1.58. For the same molecule, the “Cmin, Mean (SD)” value [8, 9] was 720 (359) nM, the “Geometric Mean Peak-to-Trough Ratio (Cmax/Cmin)” value [8, 10] was 1.32 and the “Cmin, Mean (SD)” value [8, 10] was 1464 (301) nM. The “Geometric Mean Peak-to-Trough Ratio (Cmax/Cmin)” value [8, 11] was 1.45, the “Cmin, Mean (SD)” value [8, 11] was 1139 (803) nM and the “Geometric Mean Peak-to-Trough Ratio (Cmax/Cmin)” value [8, 12] was 1.44. For the same molecule, the “Cmin, Mean (SD)” value [8, 12] was 1802 (846) nM, the “Geometric Mean Peak-to-Trough Ratio (Cmax/Cmin)” value ([8]; QID/M-7D 55 mg, Day 7, Dose 2, steady state, n=3) was 1.81 and the “Geometric Mean Peak-to-Trough Ratio (Cmax/Cmin)” value ([8]; QID/M-7D 60 mg, Day 7, Dose 2, steady state, n=6) was 1.80. For the same molecule, the “Geometric Mean Peak-to-Trough Ratio (Cmax/Cmin)” value ([8]; QID/M-7D 70 mg, Day 7, Dose 2, steady state, n=3) was 1.65, the “Geometric Mean Peak-to-Trough Ratio (Cmax/Cmin)” value ([8]; QID/M-7D 80 mg, Day 7, Dose 2, steady state, n=3) was 1.35 and the “Geometric Mean Peak-to-Trough Ratio (Cmax/Cmin)” value ([8]; QID/M-14D 60 mg, Day 14, Dose 2, steady state, n=3) was 1.29. For the same molecule, the “Peak-to-Trough Ratio (Cmax/Cmin)” value ([8]; QID/M-21D 60 mg, Day 21, Dose 2, steady state, individual data, n=1) was 1.59 ^†.
